According to patent US20100248960A1, “Method For Protecting Cereals From Being Infected By Fungi” (BASF SE, priority 2007, published 2010):

Legend:
[1] = system: Puccinia recondita; assay: Curative control of brown rust on wheat caused by Puccinia recondita; type: in vivo; details: assessed after 8 days, efficacy in % of untreated control (90% infection), read-out: Observed activity (% infection); for inhibition at 0.063 ppm: 192 h; for inhibition at 0.25 ppm: sprayed 1 day after inoculation
Method: (§1) The active compounds were prepared as a stock solution comprising 25 mg of N-(trans-2-bicycloprop-2-ylphenyl)-3-difluoromethyl-1-methyl-1H-pyrazole-4-carboxamide (Ia), which was made up to 10 ml using a mixture of acetone and/or dimethyl sulfoxide and the emulsifier Wettol® EM31 (wetting agent having an emulsifying and dispersing action based on ethoxylated alkylphenols) in a ratio by volume of solvent/emulsifier of 99:1. The mixture was then made up to 100 ml with water. This stock solution was diluted with the solvent/emulsifier/water mixture described to give the concentration of active compound stated below. Epoxiconazole and metconazole were employed as a commercial finished formulation and diluted with water to the stated concentration of active compound.
(§2) The visually determined percentages of infected leaf areas were converted into efficacies in % of the untreated control.
(§3) The efficacy (E) is calculated as follows using Abbot's formula: […]
(§4) αcorresponds to the fungicidal infection of the treated plants in % and βcorresponds to the fungicidal infection of the untreated (control) plants in %
(§5) An efficacy of 0 means that, the infection level of the treated plants corresponds to that of the untreated control plants; an efficacy of 100 means that the treated plants were not infected.
(§6) The expected efficacies of active compound combinations were determined using Colby's formula (Colby, S.R. “Calculating synergistic and antagonistic responses of herbicide combinations”, Weeds, 15, pp. 20-22, 1967) and compared with the observed efficacies.
(§7) Colby's formula: E=x+y−x•y/100 • E expected efficacy, expressed in % of the untreated control, when using the mixture of the active compounds A and B at the concentrations a and b • x efficacy, expressed in % of the untreated control, when using the active compound A at the concentration a • y efficacy, expressed in % of the untreated control, when using the active compound B at the concentration b
The first two developed leaves of pot-grown wheat seedling were dusted with spores of Puccinia recondita. To ensure the success the artificial inoculation, the plants were transferred to a humid chamber without light and a relative humidity of 95 to 99% and 20 to 22° C. for 24 h. The next day the plants were sprayed to run-off with an aqueous suspension, containing the concentration of active ingredient as described below. The plants were allowed to air-dry. Then the trial plants were cultivated for 8 days in a greenhouse chamber at 22-26° C. and a relative humidity between 65 and 70%. The extent of fungal attack on the leaves was visually assessed as % diseased leaf area. The expected efficacies of mixtures of active compounds were determined using Colby's formula and compared with the observed efficacies.

[2] = system: Puccinia recondita; assay: Preventative control of brown rust on wheat caused by Puccinia recondita; type: in vivo; details: efficacy in % of untreated control (90% infection), read-out: Observed activity (% infection); for inhibition at 1 ppm: sprayed 1 day before inoculation
Method: as §1, §2, §3, §4, §5, §6, §7
The first two developed leaves of pot-grown wheat seedling were sprayed to run-off with an aqueous suspension, containing the concentration of active ingredient as described below. The next day the plants were inoculated with spores of Puccinia recondita. To ensure the success the artificial inoculation, the plants were transferred to a humid chamber without light and a relative humidity of 95 to 99% and 20 to 22° C. for 24 h. Then the trial plants were cultivated for 6 days in a greenhouse chamber at 22-26° C. and a relative humidity between 65 and 70%. The extent of fungal attack on the leaves was visually assessed as % diseased leaf area.
The expected efficacies of mixtures of active compounds were determined using Colby's formula and compared with the observed efficacies.

| SMILES | inhibition at 0.063 ppm [1] [%] | inhibition at 0.25 ppm [1] [%] | inhibition at 0.063 ppm ([2]; 0.063 ppm) [%] | inhibition at 1 ppm [2] [%] | inhibition at 0.25 ppm ([2]; 0.25 ppm) [%] |
| --- | --- | --- | --- | --- | --- |
| Fc1ccc([C@]2(Cn3cncn3)O[C@H]2c2ccccc2Cl)cc1 (racemic) [epoxiconazole] | 22 | – | – | – | – |
| CC1(C)CCC(Cc2ccc(Cl)cc2)C1(O)Cn1cncn1 (centres unmarked) [metconazole] | – | 44 | 0 | 0 | – |
| Cn1cc(C(=O)Nc2ccccc2[C@@H]2C[C@H]2C2CC2)c(C(F)F)n1 [Compound (Ia), N-(trans-2-bicycloprop-2-ylphenyl)-3-difluoromethyl-1-methyl-1H-pyrazole-4-carboxamide] | 0 | 0 | – | 22 | 0 |
